Results from patent EP2642290A1, “Glatiramer acetate human monocytic cell line-based potency assay” (Synthon BV, priority 2012, dated 2013).
Several values for one entry are separate records, joined by “and”; a condition that tells them apart may be missing. Equal values may be shown once.

What was measured:
[1] = tested on: THP-1 cells; assay: Human monocytic cell line-based potency assay: sIL-1Ra expression (ELISA) in THP-1 cells stimulated with PMA and LPS and exposed to glatiramer acetate; details: THP-1 cells treated with PMA alone or LPS alone instead of the combination
[2] = tested on: THP-1 cells; assay: as above
Procedure: Human monocytic cells are brought into a suitable medium, e.g. RPMI 1640 medium, and are stimulated with an effective amount of PMA and LPS, contacted with GA (0-250 μg/ml) and the effect on the expression of a monocyte anti-inflammatory cytokine, such as sIL-1Ra, is measured. […] Dose-response curves are generated by GA activation of monocytic cells and EC50 values are calculated using a non-linear four-parameter logistic model on semi-log transformed data, as described in the draft USP chapter <1034> on analysis of biological assays.
• THP-1 cells are harvested and centrifugated at 200g for 5 minutes; • Resuspend the pellet in 10 ml fresh pre-warmed RPMI-1640+10% FBS+2mM L-Glutamine; • Take a sample for cell counting; • After cell count adjust the cell density to 5 x 10^5 cells/ml and add 100 μl of the THP-1 cell suspension to the wells of a 96-wellsplate (Corning Costar #3596); • Fill the boundary wells of the plate with CGM and place the plate temporally into a humidified incubator at 37 ± 1 °C and 5.0 ± 1% CO2.
• In the dilution plate prepare the glatiramer acetate dilution series. The stock concentration is 20 mg/ml, which needs to be diluted in a 96-wellsplate to a working stock concentration of 1.2 mg/ml for the highest dilution on the dilution plate; • Pipette 75 μl RPMI-1640+10% FBS in column 2-8 (row B-G) of the dilution plate and pipette 235 μl RPMI-1640+10% FBS in column 9 (row B-G). Note: Other wells of the dilution 96-wellsplate remain unused; • Add 15 μl of reference glatiramer acetate and the test sample of glatiramer acetate (20 mg/ml) into column 9 (row B-G) of the dilution plate, giving a new concentration of 1.2 mg/ml; • Serially dilute 150 μl down, from column 9 to 2. Mix at each step by pipetting up and down 5 times; • Add 50 μl of the LPS/PMA working solution to the cell plate, with exception of the boundary wells.The final concentrations are 25 ng/ml LPS and 5 ng/ml PMA; • Add 50 μl of the glatiramer acetate dilutions to the plate containing the cells and the LPS and PMA working solution. The final dose-range of glatiramer acetate is between 12.5 and 250 μg/ml; • Incubate cells for 72 hours at 37°C in an incubator with 5% CO2, 93% humidity.
• After 72 hours of incubation centrifuge the 96-well plate at 200g for 5 minutes. • Transfer 150 μl of the cell-free supernatant/well to a storage plate. • Supernatant of the samples will be used for analysis by IL-1Ra/Il-1F3 ELISA. • sIL-1Ra is determined using the sIL-1Ra ELISA kit from Quantikine, R&D, Minneapolis, MN (Cat # DRAOOB) following the manufacturer's instructions. The remainder of the supernatant is stored in a closed storage plate at -80°C.
Data on sIL-1Ra concentration are analyzed for relative potency as described in draft USP chapter <1034> section 3.4 on nonlinear models for quantitative responses. The software package GraphPad Prism (5.x) is used for fitting to a nonlinear model to the data: • sIL-1Ra data (in pg/ml) are plotted against the log transformed glatiramer acetate concentration (in log μg/ml); • A four-parameter logistic model is constructed to fit the dose response curves of the Reference (Ref) and the test batch (TA). […]

## glatiramer acetate
[1]
  GA-induced cytokine expression: neither PMA nor LPS treatment of THP-1 cells alone results in GA-induced cytokine expression
[2]; bottom asymptote of constrained four-parameter logistic fit of sIL-1Ra response (sIL-1Ra data in pg/ml), 5 ng/ml PMA and 25 ng/ml LPS, 72 hours, four independent curves A-D of the same material, common value
  Bottom: -4031
[2]; relative to curve A, arbitrarily set at 100%, all curves are 100% samples of the same material, curves A-D
  Relative potency (%): 100.0% and 128.5% and 118.5% and 107.7%
[2]; sIL-1Ra response, glatiramer acetate concentration in μg/ml, 5 ng/ml PMA and 25 ng/ml LPS, 72 hours, four independent curves A-D of the same material, in µg/mL
  EC50: 42.05 and 54.02 and 49.84 and 45.28
[2]; slope of constrained four-parameter logistic fit of sIL-1Ra response, 5 ng/ml PMA and 25 ng/ml LPS, curves A-D, common value
  Slope: 3.306
[2]; top asymptote of constrained four-parameter logistic fit of sIL-1Ra response (sIL-1Ra data in pg/ml), 5 ng/ml PMA and 25 ng/ml LPS, 72 hours, curves A-D, common value
  Top: 53602
